From PubChem BioAssay AID330 (DTP/NCI, 2004)
Several values for one entry are separate records, joined by “and”; a condition that tells them apart may be missing. Identical values can stand only once. Inconclusive results and toxic doses are left out.

System: P388 leukemia ip, CD2F1 mice, survival T/C
Assay: NCI In Vivo Anticancer Drug Screen. Data for tumor model P388 Leukemia (intraperitoneal) in CD2F1 (CDF1) mice
Details: endpoint: median survival time, higher = longer survival
Method in brief: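 Mice carrying the transplanted tumor received test compound or vehicle. Survival was recorded in each group, and the value is the treated-group measurement divided by that of the vehicle-treated control group.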

[1] = dose: 6.25 mg/kg/injection, schedule: Q01DX009 (ip), vehicle: distilled water + Tween-80
[2] = dose: 12.5 mg/kg/injection, schedule: Q01DX009 (ip), vehicle: distilled water + Tween-80
[3] = dose: 60.0 mg/kg/injection, schedule: Q01DX005 (ip), vehicle: Klucel (hydroxypropylcellulose) (HPC)
[4] = dose: 25.0 mg/kg/injection, schedule: Q01DX009 (ip), vehicle: saline
[5] = dose: 50.0 mg/kg/injection, schedule: Q01DX009 (ip), vehicle: Klucel (hydroxypropylcellulose) (HPC)
[6] = dose: 100.0 mg/kg/injection, schedule: Q01DX009 (ip), vehicle: Klucel (hydroxypropylcellulose) (HPC)
[7] = dose: 200.0 mg/kg/injection, schedule: Q01DX009 (ip), vehicle: Klucel (hydroxypropylcellulose) (HPC)
[8] = dose: 50.0 mg/kg/injection, schedule: Q01DX009 (ip), vehicle: saline
[9] = dose: 100.0 mg/kg/injection, schedule: Q01DX009 (ip), vehicle: saline
[10] = dose: 50.0 mg/kg/injection, schedule: Q01DX009 (ip), vehicle: saline with Tween-80
[11] = dose: 100.0 mg/kg/injection, schedule: Q01DX009 (ip), vehicle: saline with Tween-80
[12] = dose: 200.0 mg/kg/injection, schedule: Q01DX009 (ip), vehicle: saline

Cc1sc([S-])n[n+]1-c1ccccc1
T/C [1]: 93 % of control | T/C [2]: 90 % of control | T/C (dose: 25.0 mg/kg/injection, schedule: Q01DX009 (ip), vehicle: distilled water + Tween-80): 96 % of control | T/C (dose: 50.0 mg/kg/injection, schedule: Q01DX009 (ip), vehicle: distilled water + Tween-80): 97 % of control | T/C (dose: 100.0 mg/kg/injection, schedule: Q01DX009 (ip), vehicle: distilled water + Tween-80): 110 % of control | T/C (dose: 200.0 mg/kg/injection, schedule: Q01DX009 (ip), vehicle: distilled water + Tween-80): 105 % of control

CCCOC1(C)Oc2cc3c(cc2C(c2cc(OC)c(OC)c(OC)c2)C1C)OCO3 (configuration not stated)
T/C [3]: 97 % of control | T/C (dose: 120.0 mg/kg/injection, schedule: Q01DX005 (ip), vehicle: Klucel (hydroxypropylcellulose) (HPC)): 96 % of control | T/C (dose: 240.0 mg/kg/injection, schedule: Q01DX005 (ip), vehicle: Klucel (hydroxypropylcellulose) (HPC)): 99 % of control

COc1cc2cnc(-c3ccccc3)c(O)c2cc1OC
T/C (dose: 100.0 mg/kg/injection, schedule: Q04DX003 (ip), vehicle: suspension in saline): 98 % of control | T/C (dose: 200.0 mg/kg/injection, schedule: Q04DX003 (ip), vehicle: suspension in saline): 94 % of control | T/C (dose: 400.0 mg/kg/injection, schedule: Q04DX003 (ip), vehicle: suspension in saline): 94 % of control

COC12CC(=O)C(C(C)=O)=C(O)C1(C)c1c(OC(C)=O)c(C)c(O)c(C(C)=O)c1O2 (configuration not stated)
T/C (dose: 25.0 mg/kg/injection, schedule: Q01DX009 (ip), vehicle: gum acacia): 106 % of control | T/C (dose: 50.0 mg/kg/injection, schedule: Q01DX009 (ip), vehicle: gum acacia): 99 % of control and 104 % of control and 114 % of control | T/C (dose: 100.0 mg/kg/injection, schedule: Q01DX009 (ip), vehicle: gum acacia): 124 % of control

C/C=C(\CC[Se]c1ccccc1)C(=O)OC
T/C (dose: 50.0 mg/kg/injection, schedule: Q01DX009 (ip), vehicle: distilled water + Tween-80 + alcohol): 108 % of control | T/C (dose: 100.0 mg/kg/injection, schedule: Q01DX009 (ip), vehicle: distilled water + Tween-80 + alcohol): 98 % of control | T/C (dose: 200.0 mg/kg/injection, schedule: Q01DX009 (ip), vehicle: distilled water + Tween-80 + alcohol): 106 % of control

Cn1cc(C(=O)O)c(=O)c2ccc(/C=C/c3ccc([N+](=O)[O-])o3)nc21
T/C (dose: 3.12 mg/kg/injection, schedule: Q01DX009 (ip), vehicle: saline): 92 % of control | T/C (dose: 6.25 mg/kg/injection, schedule: Q01DX009 (ip), vehicle: saline): 97 % of control | T/C (dose: 12.5 mg/kg/injection, schedule: Q01DX009 (ip), vehicle: saline): 111 % of control | T/C [4]: 103 % of control

CCOC(=O)CNCCN(CC)CC
T/C (dose: 100.0 mg/kg/injection, schedule: Q01DX001 (ip), vehicle: saline with Tween-80): 109 % of control | T/C (dose: 200.0 mg/kg/injection, schedule: Q01DX001 (ip), vehicle: saline with Tween-80): 95 % of control | T/C (dose: 400.0 mg/kg/injection, schedule: Q01DX001 (ip), vehicle: saline with Tween-80): 100 % of control

ClCC1=NC2CCCCC2N1 (configuration not stated)
T/C (dose: 50.0 mg/kg/injection, schedule: Q01DX005 (ip), vehicle: saline with Tween-80): 102 % of control | T/C (dose: 100.0 mg/kg/injection, schedule: Q01DX005 (ip), vehicle: saline with Tween-80): 98 % of control

Cn1nnc(/C(N)=N/N=C/c2ccccc2)n1
T/C [5]: 100 % of control | T/C [6]: 102 % of control | T/C [7]: 94 % of control

CCc1nc(N)nc(N)c1-c1ccc(Cl)c([N+](=O)[O-])c1
T/C (dose: 0.78 mg/kg/injection, schedule: Q01DX009 (ip), vehicle: distilled water + Tween-80): 105 % of control | T/C (dose: 3.13 mg/kg/injection, schedule: Q01DX009 (ip), vehicle: distilled water + Tween-80): 120 % of control and 123 % of control | T/C [1]: 170 % of control | T/C [2]: 163 % of control

CCOC(=O)CCN(C)C1CCCCC1C(=O)OCC (configuration not stated)
T/C [4]: 100 % of control | T/C [8]: 101 % of control | T/C [9]: 107 % of control

CC(C)Sc1ncn[nH]1
T/C (dose: 50.0 mg/kg/injection, schedule: Q01DX005 (ip), vehicle: saline): 99 % of control | T/C (dose: 100.0 mg/kg/injection, schedule: Q01DX005 (ip), vehicle: saline): 100 % of control | T/C (dose: 200.0 mg/kg/injection, schedule: Q01DX005 (ip), vehicle: saline): 102 % of control

C(=C/c1cc2cc(C3=NCCN3)ccc2o1)/C=C/c1cc2cc(C3=NCCN3)ccc2o1
T/C (dose: 100.0 mg/kg/injection, schedule: Q04DX003 (ip), vehicle: saline): 106 % of control | T/C (dose: 200.0 mg/kg/injection, schedule: Q04DX003 (ip), vehicle: saline): 104 % of control | T/C (dose: 400.0 mg/kg/injection, schedule: Q04DX003 (ip), vehicle: saline): 110 % of control

S=C(Nc1ccccc1)SSC(Cl)(Cl)Cl
T/C (dose: 12.5 mg/kg/injection, schedule: Q01DX009 (ip), vehicle: saline + Tween-80 + alcohol): 93 % of control | T/C (dose: 25.0 mg/kg/injection, schedule: Q01DX009 (ip), vehicle: saline + Tween-80 + alcohol): 94 % of control | T/C (dose: 50.0 mg/kg/injection, schedule: Q01DX009 (ip), vehicle: saline + Tween-80 + alcohol): 109 % of control | T/C [10]: 117 % of control | T/C [11]: 114 % of control

CCCCCCCCC[N+](C)([O-])CCCCCC[N+](C)([O-])CCCCCCCCC (configuration not stated)
T/C (dose: 12.5 mg/kg/injection, schedule: Q04DX003 (ip), vehicle: saline): 103 % of control | T/C (dose: 25.0 mg/kg/injection, schedule: Q04DX003 (ip), vehicle: saline): 96 % of control | T/C (dose: 50.0 mg/kg/injection, schedule: Q04DX003 (ip), vehicle: saline): 93 % of control

CCOC(=O)C12C=CC(=O)NC1(OC)OC(C)(C)C2 (configuration not stated)
T/C (dose: 20.0 mg/kg/injection, schedule: Q01DX001 (ip), vehicle: Klucel (hydroxypropylcellulose) (HPC)): 95 % of control | T/C (dose: 40.0 mg/kg/injection, schedule: Q01DX001 (ip), vehicle: Klucel (hydroxypropylcellulose) (HPC)): 93 % of control | T/C (dose: 80.0 mg/kg/injection, schedule: Q01DX001 (ip), vehicle: Klucel (hydroxypropylcellulose) (HPC)): 89 % of control

O=C1N=NC2NC=CN3C=CC=C1C23 (configuration not stated)
T/C (dose: 60.0 mg/kg/injection, schedule: Q01DX005 (ip), vehicle: saline with Tween-80): 102 % of control | T/C (dose: 120.0 mg/kg/injection, schedule: Q01DX005 (ip), vehicle: saline with Tween-80): 107 % of control | T/C (dose: 240.0 mg/kg/injection, schedule: Q01DX005 (ip), vehicle: saline with Tween-80): 110 % of control

O=[N+]([O-])c1c(Sc2ccccc2)ncnc1Sc1ccccc1
T/C (dose: 12.5 mg/kg/injection, schedule: Q01DX009 (ip), vehicle: saline with Tween-80): 100 % of control | T/C (dose: 25.0 mg/kg/injection, schedule: Q01DX009 (ip), vehicle: saline with Tween-80): 100 % of control | T/C [10]: 91 % of control | T/C [8]: 95 % of control

Cc1ccc(C(=O)NNC(=O)Nc2cccc(Cl)c2C)cc1
T/C [5]: 92 % of control | T/C [6]: 89 % of control | T/C [7]: 93 % of control

O=C1OC(C(O)CO)/C(=N\O)C1O (configuration not stated)
T/C [8]: 104 % of control | T/C [9]: 104 % of control | T/C [12]: 111 % of control

O=C(c1ccccc1)C(SSN1CCOCC1)C(=O)c1ccccc1
T/C [10]: 91 % of control | T/C [11]: 100 % of control | T/C (dose: 200.0 mg/kg/injection, schedule: Q01DX009 (ip), vehicle: saline with Tween-80): 106 % of control

[N-]=[N+]=CC(=O)CCC(NC(=O)OCc1ccccc1)C(=O)OCc1ccccc1 (configuration not stated)
T/C (dose: 0.78 mg/kg/injection, schedule: Q01DX005 (ip), vehicle: Klucel (hydroxypropylcellulose) (HPC)): 102 % of control | T/C (dose: 1.56 mg/kg/injection, schedule: Q01DX005 (ip), vehicle: Klucel (hydroxypropylcellulose) (HPC)): 110 % of control | T/C (dose: 3.13 mg/kg/injection, schedule: Q01DX005 (ip), vehicle: Klucel (hydroxypropylcellulose) (HPC)): 101 % of control | T/C (dose: 6.25 mg/kg/injection, schedule: Q01DX005 (ip), vehicle: Klucel (hydroxypropylcellulose) (HPC)): 104 % of control | T/C (dose: 12.5 mg/kg/injection, schedule: Q01DX005 (ip), vehicle: Klucel (hydroxypropylcellulose) (HPC)): 99 % of control and 101 % of control and 113 % of control | T/C (dose: 25.0 mg/kg/injection, schedule: Q01DX005 (ip), vehicle: Klucel (hydroxypropylcellulose) (HPC)): 110 % of control and 120 % of control | T/C (dose: 36.0 mg/kg/injection, schedule: Q01DX005 (ip), vehicle: Klucel (hydroxypropylcellulose) (HPC)): 107 % of control | T/C [3]: 120 % of control | T/C (dose: 278.0 mg/kg/injection, schedule: Q01DX005 (ip), vehicle: Klucel (hydroxypropylcellulose) (HPC)): 152 % of control

C#CC(C)(CC)OC(=O)c1ccccc1C(=O)O (configuration not stated)
T/C [8]: 100 % of control | T/C [9]: 104 % of control | T/C [12]: 95 % of control
